From PubChem BioAssay (NCI)
Where “and” joins values, the source holds several entries; their conditions need not be identical. Identical values can stand only once.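 Each compound was tested at five concentrations against cells in 96-well plates for 48 hours. The concentration for 50% growth inhibition is given as GI50. Definition used: TGI = concentration required for complete inhibition of growth.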

Columns and labels:
Assay in all cases: NCI anticancer screen, dose series, 48 h
SNB-75 CNS = test system: SNB-75 CNS
M14 melanoma = test system: M14 melanoma
UACC-257 melanoma = test system: UACC-257 melanoma
NCI-H226 lung = test system: NCI-H226 lung
U251 CNS = test system: U251 CNS
MALME-3M melanoma = test system: MALME-3M melanoma
SF-268 CNS = test system: SF-268 CNS
OVCAR-4 ovarian = test system: OVCAR-4 ovarian
T-47D breast = test system: T-47D breast
HS 578T breast = test system: HS 578T breast

SMILES | TGI (SNB-75 CNS) | TGI (M14 melanoma) | TGI (UACC-257 melanoma) | TGI (NCI-H226 lung) | TGI (U251 CNS) | TGI (MALME-3M melanoma) | TGI (SF-268 CNS) | TGI (OVCAR-4 ovarian) | TGI (T-47D breast) | TGI (HS 578T breast) | GI50 (SNB-75 CNS) | GI50 (OVCAR-4 ovarian) | GI50 (M14 melanoma) | GI50 (UACC-257 melanoma) | GI50 (NCI-H226 lung) | GI50 (U251 CNS) | GI50 (SF-268 CNS) | GI50 (MALME-3M melanoma)
COc1ccc(C)cc1C1CCC(=O)O1 (stereo not given) | > 100 µM | > 100 µM | > 100 µM | > 100 µM | > 100 µM | > 100 µM | – | – | – | – | – | – | – | – | – | – | – | –
C/C(CC(=O)Nc1cccc([N+](=O)[O-])c1)=N\NC(=O)CC#N | > 100 µM | > 100 µM | > 100 µM | > 100 µM | > 100 µM | > 100 µM | > 100 µM | – | – | – | – | – | – | – | – | – | – | –
CC(=O)c1c2c(cc3c1CC1(C3)Cc3cc4c(c(C(=O)O)c3C1)CCC4)CCC2 (stereo not given) | > 100 µM | > 100 µM | > 100 µM | – | 70.6 µM | > 100 µM | > 100 µM | > 100 µM | – | – | – | – | – | – | – | – | – | –
O=C1CCC(=O)c2sccc2N1 | > 100 µM | > 100 µM | > 100 µM | > 100 µM | > 100 µM | > 100 µM | > 100 µM | > 100 µM | – | – | – | – | – | – | – | – | – | –
Nc1ccn(C2OC(C(OC3OC(CO)C(O)C(N)C3O)C(O)C(O)C(O)C(O)CO)C(N)C(O)C2O)c(=O)n1 (stereo not given) | – | > 100 µM | > 100 µM | – | > 100 µM | – | 68.6 µM | 14.8 µM | > 100 µM | 7.27 µM | – | – | – | – | – | – | – | –
O=C(/C=C/C1C(=O)NC(=O)NC1=O)CC(=O)C(=O)Nc1cc(Cl)c(Cl)cc1Cl | > 100 µM | > 100 µM | > 100 µM | > 100 µM | > 100 µM | > 100 µM | > 100 µM | > 100 µM | – | – | – | – | – | – | – | – | – | –
O=C1C=Cc2ncccc2C1=O | 49.8 µM | 32 µM | 35.1 µM | > 58.7 µM | > 57.8 µM | > 57.2 µM | > 59.2 µM | 17.2 µM | – | – | – | – | – | – | – | – | – | –
CC(=O)[C-](C(C)=O)c1ccccc1.CC(=O)[C-](C(C)=O)c1ccccc1.CC(=O)[C-](C(C)=O)c1ccccc1.[Cl-].[Zr+4] | 83.9 µM | > 100 µM | > 100 µM | > 100 µM | > 100 µM | > 100 µM | > 100 µM | > 100 µM | – | – | 33 µM | > 100 µM | > 100 µM | > 100 µM | > 100 µM | 58 µM | 61.7 µM | > 100 µM
N#CC(C(=O)CCCC(=O)Nc1ccc(Cl)cc1Cl)c1ccc(Cl)cc1 (stereo not given) | > 100 µM | > 100 µM | > 100 µM | > 100 µM | – | > 100 µM | > 100 µM | > 100 µM | – | – | – | – | – | – | – | – | – | –
O=c1[nH]cc(C(F)(C(F)(F)F)C(F)(F)F)c(=O)[nH]1 | > 100 µM | > 100 µM | > 100 µM | > 100 µM | > 100 µM | > 100 µM | > 100 µM | > 100 µM | – | – | – | – | – | – | – | – | – | –
Cc1c2ccncc2c(C)c2c1[nH]c1ccc(Cl)cc12 | 10 µM and 12.7 µM | 16.7 µM | 12 µM and 12.8 µM | 11 µM and 25.4 µM | 11.5 µM and 2.94 µM | 14.3 µM and 15.2 µM | 12.5 µM and 25.2 µM | 5.45 µM and 13.4 µM | – | – | – | 2.42 µM | – | 5.39 µM and 2.34 µM | 8.58 µM | 1.49 µM | 2.63 µM and 2.66 µM | 3.63 µM
C#CCOCn1cnc2ncnc(N)c21 | > 100 µM | – | > 100 µM | > 100 µM | > 100 µM | > 100 µM | > 100 µM | > 100 µM | – | – | – | – | – | – | – | – | – | –
S=c1c2ccccc2c(=S)n2n1CC=CC2 | > 100 µM | > 100 µM | > 100 µM | > 100 µM | > 100 µM | > 100 µM | > 100 µM | > 100 µM | – | – | – | – | – | – | – | – | – | –
c1ccc(-c2ccnc3c2ccc2c(-c4ccccc4)ccnc23)cc1 | 9.43 µM | 17.6 µM | 5.5 µM | 4.76 µM | 6.79 µM | 13.5 µM | 13.3 µM | 12.7 µM | – | – | – | – | – | – | – | – | – | –
CC(C)N1C(C)[C@@H](c2ccccc2)O[P@]1(=O)CC1=CCCCC1 (stereo not given in full) | > 100 µM | > 100 µM | > 100 µM | > 100 µM | > 100 µM | > 100 µM | > 100 µM | – | – | – | – | – | – | – | – | – | – | –
CC(C)(C)Sc1nnc(SC(C)(C)C)c2c(=O)[nH]nc(SC(C)(C)C)c12 | 24.3 µM | 28.9 µM | 26.7 µM | 28.5 µM | 19.7 µM | 26.2 µM | 21.2 µM | 10.5 µM | – | – | – | – | – | – | – | – | – | –
C/C(=N\NS(=O)(=O)c1ccc([N+](=O)[O-])cc1)c1ccc[n+]([O-])n1 | 5.36 µM | 4.84 µM | 14.6 µM | 3.91 µM | 5.06 µM | 9.45 µM | 7.65 µM | 5.69 µM | – | – | – | – | – | – | – | – | – | –
COc1ccc(NC(=O)C2C(=O)N(c3ccc(OC)cc3)C(=O)/C2=N\NC(N)=O)cc1 (stereo not given) | 49.3 µM | > 100 µM | > 100 µM | 51.7 µM | 35.4 µM | 68.5 µM | 63.9 µM | 94.3 µM | – | – | – | – | – | – | – | – | – | –
